Reference: patent publication US20060276372A1, “Carotenoids, carotenoid analogs, or carotenoid derivatives for the treatment of proliferative disorders” (priority 2005, published 2006)
Like-named read-outs stand apart in the source and are kept apart here.

Legend:
[1] = tested on: human prostate cancer cells; settings: cited from earlier work
CX43 protein = CX43 protein expression in 10T1/2 cells by Western blotting (Example 1); type: cell-based, Mouse; settings: 4 days
Procedure: Cell lines and culture conditions. Mouse embryonic fibroblast 10T1/2 cells were cultured in Eagle's basal medium with Earle's salts supplemented with 4% fetal calf serum (Atlanta Biologicals, Norcross, Ga.), 25 μg/ml gentamicin sulfate (Sigma, St. Louis, Mo.), and passaged by trypsin/EDTA (Gibco Invitrogen, Carlsbad, Calif.) and maintained at 37° C. in a 5% CO2 atmosphere. The cells were allowed to grow until a monolayer was formed. The confluent cells were treated 7 days after seeding, unless otherwise indicated. dAST was prepared in a formulation of 20% EtOH and sterile water (0.2% final EtOH ) to minimize supramolecular aggregation, and the final concentration of EtOH in culture medium was 0.2%. CTX was dissolved in THF and added to media. TTNPB was dissolved in acetone (Sigma, St. Louis, Mo.) and cultures received a final acetone concentration of 0.1%.
Analysis of CX43 protein expression. Expression of CX43 protein in 10T1/2 cells was assessed by Western blotting. 10T1/2 cell monolayers were treated with the indicated carotenoid derivatives or with retinoids (as a positive control for the modulation of CX43 expression) 7 days after seeding in 100 mm dishes (Fisher Scientific, Pittsburgh, Pa.). Fours days after the drug was added to the cells, the cells were harvested, total cellular protein was isolated and the total protein concentration thereof was determined using a commercially available Protein Assay Reagent kit (Pierce Chemical Co., Rockford, Ill.). 40 μg of total cellular protein was resolved on an SDS-PAGE gel, transferred to a nitrocellulose membrane, and analyzed by Western blotting using the NuPage Western blotting kit (Invitrogen, Carlsbad, Calif.). CX43 was detected using a rabbit polyclonal antibody (Zymed, San Francisco, Calif.) raised against a synthetic polypeptide corresponding to the C-terminal domain common to mouse, human and rat CX43. Equal protein loafing was verified by immunoblotting for GAPDH, the expression of which is unaffected by treatment with retinoids or carotenoids, using a rabbit polyclonal GAPDH antibody was also used (Zymed, San Francisco, Calif.). CX43 and GAPDH immunoreactive bands were visualized by chemiluminescence using an anti-rabbit HRP-conjugated secondary antibody (Pierce Chemical Co., Rockford, Ill.). Images were obtained by exposure to X-ray film as previously described and scanned for digital analysis on the Fluoro-S Imager (Bio-Rad, Richmond, Calif.).

CX43 = CX43 plaques by indirect immunofluorescence in 10T1/2 cells; type: cell-based, Mouse; settings: 10^−6 M, 4 days
Procedure: Analysis of CX43 protein by indirect immunofluorescence. Expression and assembly of CX43 into plaques was assessed by immunofluorescence staining essentially as described in Rogers et al, 1990, which is incorporated herein by reference. Briefly, confluent cultures of 10T1/2 cells were grown on Permanox plastic 4-chamber slides (Nalge Nunc International, Naperville, Ill.) and treated for 4 days as described above. Cells were fixed with −20° C. methanol overnight, washed in buffer, blocked in 1% bovine serum albumin (Sigma, St. Louis, Mo.) in PBS, incubated with the rabbit anti-CX43 antibody, and visualized with Alexa568 conjugated anti-rabbit secondary antibody (Molecular Probes, Eugene, Oreg.). Images were acquired with a Zeiss Axioplan microscope and a Roper Scientific cooled CCD camera.

10T1/2 cells [2] = assay: Gap junctional communication, scrape-loading dye transfer assay; type: cell-based, Mouse; settings: 7 days
Procedure: Gap junctional communication assay. Junctional permeability was assayed by the scrape-loading dye transfer assay essentially as described in El-Fouly et al., 1987, which is incorporated herein by reference. Briefly, confluent cultures of 10T1/2 cells grown in 60 mm dishes were treated with the indicated compounds for 7 days. The treated cells were washed with Ca^+2-free phosphate-buffered saline (PBS). 1.5 ml of Lucifer Yellow CH (Sigma, St. Louis, Mo.) 0.2% in PBS was then added, and linear cuts were made on the monolayer using a surgical scalpel. The cultures were incubated for 2 minutes at 37° C. then rinsed thoroughly with PBS. The cultures were then fixed with 2 ml of 5% formaldehyde in PBS. Images were digitally quantitated by intensity thresholding using the SigmaScan software program (Jandel Scientific, San Rafael, Calif.).

10T1/2 cells [3] = type: cell-based, Mouse; settings: for % Inhibition of MCA-induced transformation: 4 week period; for Foci/dish (mean Type II + Type III foci, 24 dishes): 4 week period after MCA
Procedure: Inhibition of MCA-induced neoplastic transformation in 10T1/2 cells. Cells were initiated with methylcholanthrene (MCA) […] (Sigma, St. Louis, Mo.) in acetone for 24 hours. Potential inhibitors of neoplastic transformation were added 7 days after removal of carcinogen as indicated and were renewed weekly by adding fresh medium supplemented with the appropriate drug for four weeks after removal of the carcinogen. The cultures were fixed and stained as described above. A total of 24 dishes of cells were used per treatment group. Type II and III foci were identified and then quantitated as described in Bertram et al., 1990, which is incorporated herein by reference.
Statistical analysis. Transformation data was analyzed by one-tailed, two-sample t-tests that incorporated unequal variances. The scrape-loading data was analyzed by paired t-tests.

[4] = Determination of aqueous solubility/dispersibility; type: physicochemical; settings: USP-purified water, 2 hours, supernatant by UV/Vis
Procedure: Determination of aqueous solubility/dispersibility. 30.13 mg of 3 was added to 1 mL of USP-purified water. The sample was rotated for 2 hours, then centrifuged for 5 minutes. After centrifuging, solid was visible in the bottom of the tube. A 125-μL aliquot of the solution was then diluted to 25 mL. The sample was analyzed by UV/Vis spectroscopy at 436 nm, and the absorbance was compared to a standard curve compiled from 4 standards of known concentration. The concentration of the original supernatant was calculated to be 2.85 mg/mL and the absorptivity was 36.94 AU*mL/cm*mg. Slight error may have been introduced by the small size of the original aliquot.
Next, 30.80 mg of 9 was added to 1 mL of USP-purified water. The sample was rotated for 2 hours, then centrifuged for 5 minutes. After centrifuging, solid was visible in the bottom of the tube. A 125-μL aliquot of the solution was then diluted to 25 mL. The sample was analyzed by UViis spectroscopy at 411 nm, and the absorbance was compared to a standard curve compiled from 4 standards of known concentration. […] Slight error may have been introduced by the small size of the original aliquot.
Determination of aqueous solubility/dipsersibility of pAST. 23.70 mg of tetrasodium diphosphate astaxanthin was added to 1 ml of USP purified water. The mixture was stirred for 2 hours, and centrifuged for 5 minutes. The solution was diluted in water and analyzed by UV/vis spectroscopy at 480 nm and absorbance was compared to a standard curve compiled from 4 standards of known concentration.

Structure (SMILES)	apoptosis of prostate cancer cells ([1]; Ghosh et al.)	cells in culture killed ([1]; concentration of 10 mM)	CX43 protein induction versus solvent-treated controls (CX43 protein; 10^−5 M)	CX43 protein induction versus solvent-treated controls (CX43 protein; 10^−6 M)	CX43 protein induction versus solvent-treated controls (CX43 protein; 10^−7 M)	CX43 immunoreactive plaques at regions of cell/cell apposition (CX43)	increase of GJIC (dye transfer) over untreated control cultures (10T1/2 cells [2]; 10^−9 M)	relative amount of GJIC over concentration range (10T1/2 cells [2]; concentrations ranging from 10^−10 to 10^−6 M)	cumulative toxicity, monolayer formation (10T1/2 cells [3]; 10^−5 M for 4 weeks)	neoplastic transformation (10T1/2 cells [3]; 10^−5 M for 4 weeks)	% Inhibition of MCA-induced transformation (10T1/2 cells [3]; 10^−6 M)	Foci/dish (mean Type II + Type III foci, 24 dishes) (10T1/2 cells [3]; 10^−6 M)	Foci/dish (mean Type II + Type III foci, 24 dishes) (10T1/2 cells [3]; 10^−6 M, listed as drawing 75)	% Inhibition of MCA-induced transformation (10T1/2 cells [3]; 10^−7 M)	Foci/dish (mean Type II + Type III foci, 24 dishes) (10T1/2 cells [3]; 10^−7 M)	Foci/dish (mean Type II + Type III foci, 24 dishes) (10T1/2 cells [3]; 10^−7 M, listed as drawing 75)	% Inhibition of MCA-induced transformation (10T1/2 cells [3]; 10^−8 M)	Foci/dish (mean Type II + Type III foci, 24 dishes) (10T1/2 cells [3]; 10^−8 M)	Foci/dish (mean Type II + Type III foci, 24 dishes) (10T1/2 cells [3]; 10^−8 M, listed as drawing 75)	aqueous solubility/dispersibility [4]
CC(C)c1ccc2c(c1)c(SC(C)(C)C)c(CC(C)(C)C(=O)O)n2Cc1ccc(Cl)cc1 [MK886]	massive apoptosis	more than 90%																		
CC1=C(/C=C/C(C)=C/C=C/C(C)=C/C=C/C=C(C)/C=C/C=C(C)/C=C/C2=C(C)C(=O)C(OP(=O)([O-])[O-])CC2(C)C)C(C)(C)CC(OP(=O)([O-])[O-])C1=O.[Na+].[Na+].[Na+].[Na+] (centres unmarked) [pAST, tetrasodium diphosphate astaxanthin]			no change	about 5 fold	~2 fold	increased the prevalence of CX43 immunoreactive plaques	approximately 4 fold	remained constant over a 4-log concentration range	failed to form complete monolayers	strongly inhibited	100%	No foci	0 foci/dish	44%	substantially lowered levels of neoplastic transformation	0.91 foci/dish	36%	substantially lowered levels of neoplastic transformation	1.04 foci/dish	25.21 mg/mL
